Experiments:
Beta2 = Beta2 (Homo sapiens, UniProt P07550); experiment: PDSP radioligand binding, adrenoceptor ß2
Description: (§1) [17] and http://pdsp.med.unc.edu/UNC-CH%20Protocol%20Book.pdf.

A2B2 = A2B2 (Rattus norvegicus, UniProt P12389+P12390); experiment: PDSP radioligand binding, nicotinic receptor α2 ß2
Description: as §1

A3B2 = A3B2 (Rattus norvegicus, UniProt P04757+P12390); experiment: PDSP radioligand binding, nicotinic receptor α3 ß2
Description: as §1

Beta3 = Beta3 (Homo sapiens, UniProt P13945); experiment: PDSP radioligand binding, adrenoceptor ß3
Description: as §1

Alpha2C = molecular target: T1, Alpha2C (Homo sapiens, UniProt P18825); experiment: PDSP radioligand binding, adrenoceptor α2C
T1 sequence (P18825 1-462): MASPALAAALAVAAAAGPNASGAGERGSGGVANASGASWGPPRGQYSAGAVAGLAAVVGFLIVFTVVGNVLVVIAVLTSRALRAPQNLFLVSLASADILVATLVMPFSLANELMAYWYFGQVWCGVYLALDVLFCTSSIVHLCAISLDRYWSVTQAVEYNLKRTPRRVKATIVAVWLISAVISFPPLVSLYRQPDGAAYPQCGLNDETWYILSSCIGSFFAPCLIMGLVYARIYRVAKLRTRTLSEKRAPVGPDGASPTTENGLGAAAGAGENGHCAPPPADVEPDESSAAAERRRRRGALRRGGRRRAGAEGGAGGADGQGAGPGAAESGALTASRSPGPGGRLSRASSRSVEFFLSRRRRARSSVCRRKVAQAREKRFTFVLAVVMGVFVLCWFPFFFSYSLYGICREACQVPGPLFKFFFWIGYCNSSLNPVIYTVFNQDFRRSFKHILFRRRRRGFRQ
Description: as §1

Alpha1A = molecular target: T2, Alpha1A (Homo sapiens, UniProt P35348); experiment: PDSP radioligand binding, adrenoceptor α1A
T2 sequence (P35348 1-466): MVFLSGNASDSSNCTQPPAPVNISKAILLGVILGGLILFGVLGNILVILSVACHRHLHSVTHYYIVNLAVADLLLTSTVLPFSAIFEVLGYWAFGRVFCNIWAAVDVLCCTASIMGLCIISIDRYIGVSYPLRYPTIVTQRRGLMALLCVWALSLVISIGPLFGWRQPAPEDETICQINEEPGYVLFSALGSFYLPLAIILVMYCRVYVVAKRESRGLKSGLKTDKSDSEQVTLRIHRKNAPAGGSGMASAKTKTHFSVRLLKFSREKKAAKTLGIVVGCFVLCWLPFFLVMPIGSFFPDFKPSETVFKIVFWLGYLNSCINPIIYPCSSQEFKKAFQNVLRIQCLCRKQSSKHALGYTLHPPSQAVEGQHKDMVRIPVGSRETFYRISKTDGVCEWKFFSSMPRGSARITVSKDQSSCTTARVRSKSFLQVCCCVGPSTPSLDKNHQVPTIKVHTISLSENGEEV
Description: as §1

KOR = KOR (Homo sapiens, UniProt P41145); experiment: PDSP radioligand binding, opioid receptor KOR
Description: as §1

H3 = H3 (Homo sapiens, UniProt Q9Y5N1); experiment: PDSP radioligand binding, histamine receptor H3
Description: as §1

M3 = M3 (Homo sapiens, UniProt P20309); experiment: PDSP radioligand binding, muscarinic receptor M3
Description: as §1

5-HT7 = 5-HT7 (Homo sapiens, UniProt P34969); experiment: PDSP radioligand binding, serotonin receptor 5-HT7
Description: as §1

5-ht1e = 5-ht1e (Homo sapiens, UniProt P28566); experiment: PDSP radioligand binding, serotonin receptor 5-HT1E
Description: as §1

D3 = D3 (Homo sapiens, UniProt P35462); experiment: PDSP radioligand binding, dopamine receptor D3
Description: as §1

5-HT2A = 5-HT2A (Homo sapiens, UniProt P28223); experiment: PDSP radioligand binding, serotonin receptor 5-HT2A
Description: as §1

hDAT = hDAT (Homo sapiens, UniProt Q01959); experiment: PDSP radioligand binding, dopamine transporter
Description: as §1

M5 = molecular target: T3, M5 (Homo sapiens, UniProt P08912); experiment: PDSP radioligand binding, muscarinic receptor M5
T3 sequence (P08912 1-532): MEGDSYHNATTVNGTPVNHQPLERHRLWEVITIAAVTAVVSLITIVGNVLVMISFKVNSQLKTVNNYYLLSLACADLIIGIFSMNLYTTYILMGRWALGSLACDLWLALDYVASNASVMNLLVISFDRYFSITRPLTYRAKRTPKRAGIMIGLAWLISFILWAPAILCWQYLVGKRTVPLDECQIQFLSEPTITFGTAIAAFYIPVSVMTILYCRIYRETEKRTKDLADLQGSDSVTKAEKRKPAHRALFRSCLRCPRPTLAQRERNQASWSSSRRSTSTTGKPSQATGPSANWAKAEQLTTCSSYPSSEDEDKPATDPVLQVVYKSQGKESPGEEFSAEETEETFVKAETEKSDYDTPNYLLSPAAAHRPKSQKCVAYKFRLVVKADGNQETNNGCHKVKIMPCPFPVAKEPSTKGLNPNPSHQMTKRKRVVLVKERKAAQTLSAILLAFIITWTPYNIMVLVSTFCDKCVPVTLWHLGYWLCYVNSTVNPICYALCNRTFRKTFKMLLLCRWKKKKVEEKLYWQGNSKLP
Description: as §1

5-HT2B = 5-HT2B (Homo sapiens, UniProt P41595); experiment: PDSP radioligand binding, serotonin receptor 5-HT2B
Description: as §1

H4 = H4 (Homo sapiens, UniProt Q9H3N8); experiment: PDSP radioligand binding, histamine receptor H4
Description: as §1

GABAA = experiment: PDSP radioligand binding, GABA-A; details: Table S1; unit inferred
Description: as §1

5-HT3 = molecular target: T4, 5-HT3 (Homo sapiens, UniProt P46098); experiment: PDSP radioligand binding, serotonin receptor 5-HT3
T4 sequence (P46098 24-478): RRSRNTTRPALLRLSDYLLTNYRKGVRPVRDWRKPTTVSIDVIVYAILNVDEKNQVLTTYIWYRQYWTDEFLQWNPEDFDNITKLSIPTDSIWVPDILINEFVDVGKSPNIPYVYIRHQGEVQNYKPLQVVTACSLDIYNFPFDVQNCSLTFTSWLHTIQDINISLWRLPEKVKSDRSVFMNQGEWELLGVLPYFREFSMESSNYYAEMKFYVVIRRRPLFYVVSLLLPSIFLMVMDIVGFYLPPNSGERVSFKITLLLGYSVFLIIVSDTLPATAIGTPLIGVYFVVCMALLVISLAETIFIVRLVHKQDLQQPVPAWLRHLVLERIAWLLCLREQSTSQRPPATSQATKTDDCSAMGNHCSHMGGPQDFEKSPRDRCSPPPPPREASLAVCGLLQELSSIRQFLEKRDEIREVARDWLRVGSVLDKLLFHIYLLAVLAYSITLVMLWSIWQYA
Description: as §1

A3B4 = A3B4 (Rattus norvegicus, UniProt P04757+P12392); experiment: PDSP radioligand binding, nicotinic receptor α3 ß4
Description: as §1

H4, sequence (Q9H3N8 whole entry): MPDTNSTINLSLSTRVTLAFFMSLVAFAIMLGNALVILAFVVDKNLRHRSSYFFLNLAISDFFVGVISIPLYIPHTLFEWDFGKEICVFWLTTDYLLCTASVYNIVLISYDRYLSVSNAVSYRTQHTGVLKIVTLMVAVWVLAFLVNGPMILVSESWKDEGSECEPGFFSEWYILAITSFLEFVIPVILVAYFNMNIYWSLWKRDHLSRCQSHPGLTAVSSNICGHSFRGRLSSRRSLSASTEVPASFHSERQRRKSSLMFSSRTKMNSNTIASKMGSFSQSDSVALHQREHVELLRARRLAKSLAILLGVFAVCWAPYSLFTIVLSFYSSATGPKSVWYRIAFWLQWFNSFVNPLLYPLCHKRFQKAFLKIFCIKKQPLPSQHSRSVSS
5-HT2B, sequence (P41595 whole entry, species assumed): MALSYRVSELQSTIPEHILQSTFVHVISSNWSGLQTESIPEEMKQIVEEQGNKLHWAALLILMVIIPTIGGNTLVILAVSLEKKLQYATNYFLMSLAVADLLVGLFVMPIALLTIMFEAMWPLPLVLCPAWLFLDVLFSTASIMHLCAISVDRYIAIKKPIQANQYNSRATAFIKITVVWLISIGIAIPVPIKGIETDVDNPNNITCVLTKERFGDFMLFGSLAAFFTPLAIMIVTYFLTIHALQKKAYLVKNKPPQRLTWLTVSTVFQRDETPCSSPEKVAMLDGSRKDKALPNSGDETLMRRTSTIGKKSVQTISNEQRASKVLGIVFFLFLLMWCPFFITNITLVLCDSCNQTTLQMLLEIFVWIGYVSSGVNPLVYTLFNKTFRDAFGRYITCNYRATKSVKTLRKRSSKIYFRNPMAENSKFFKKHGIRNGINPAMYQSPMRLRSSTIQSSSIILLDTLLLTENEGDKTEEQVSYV
Beta3, sequence (P13945 whole entry): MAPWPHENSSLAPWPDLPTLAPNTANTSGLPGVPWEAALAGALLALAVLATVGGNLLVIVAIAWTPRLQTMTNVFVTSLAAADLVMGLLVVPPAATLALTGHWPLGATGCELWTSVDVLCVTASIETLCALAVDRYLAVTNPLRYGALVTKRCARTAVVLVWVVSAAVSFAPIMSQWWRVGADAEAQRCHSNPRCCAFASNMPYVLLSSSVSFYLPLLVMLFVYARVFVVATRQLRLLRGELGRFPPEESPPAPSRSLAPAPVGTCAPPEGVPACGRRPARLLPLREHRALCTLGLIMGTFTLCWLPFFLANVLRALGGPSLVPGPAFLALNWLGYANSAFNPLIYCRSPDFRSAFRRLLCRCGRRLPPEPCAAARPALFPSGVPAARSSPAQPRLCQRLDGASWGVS
A2B2, sequence (P12389 28-511): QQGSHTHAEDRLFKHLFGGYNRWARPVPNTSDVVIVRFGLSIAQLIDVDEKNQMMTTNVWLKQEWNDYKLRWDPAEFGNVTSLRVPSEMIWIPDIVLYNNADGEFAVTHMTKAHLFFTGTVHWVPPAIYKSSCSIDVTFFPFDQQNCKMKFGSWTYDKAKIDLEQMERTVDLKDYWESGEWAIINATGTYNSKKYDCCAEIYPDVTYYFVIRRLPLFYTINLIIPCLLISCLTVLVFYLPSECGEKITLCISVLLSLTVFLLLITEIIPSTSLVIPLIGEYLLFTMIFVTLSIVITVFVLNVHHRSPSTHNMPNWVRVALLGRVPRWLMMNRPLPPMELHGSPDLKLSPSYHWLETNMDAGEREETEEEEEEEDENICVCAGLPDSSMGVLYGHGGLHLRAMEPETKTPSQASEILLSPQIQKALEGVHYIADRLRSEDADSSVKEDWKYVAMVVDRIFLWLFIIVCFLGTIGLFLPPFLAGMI
A2B2, sequence (P12390 25-500): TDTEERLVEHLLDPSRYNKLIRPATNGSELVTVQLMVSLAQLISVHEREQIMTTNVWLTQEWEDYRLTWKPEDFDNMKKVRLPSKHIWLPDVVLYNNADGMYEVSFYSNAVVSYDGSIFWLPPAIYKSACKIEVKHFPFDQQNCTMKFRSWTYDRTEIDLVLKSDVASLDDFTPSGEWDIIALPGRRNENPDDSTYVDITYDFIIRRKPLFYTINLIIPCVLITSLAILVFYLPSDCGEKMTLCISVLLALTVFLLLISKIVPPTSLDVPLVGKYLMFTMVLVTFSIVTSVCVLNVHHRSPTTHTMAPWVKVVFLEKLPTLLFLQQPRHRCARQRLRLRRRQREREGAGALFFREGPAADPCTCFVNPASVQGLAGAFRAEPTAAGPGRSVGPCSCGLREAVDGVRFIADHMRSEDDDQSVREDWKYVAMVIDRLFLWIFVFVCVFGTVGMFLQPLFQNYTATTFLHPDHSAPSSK
KOR, sequence (P41145 whole entry): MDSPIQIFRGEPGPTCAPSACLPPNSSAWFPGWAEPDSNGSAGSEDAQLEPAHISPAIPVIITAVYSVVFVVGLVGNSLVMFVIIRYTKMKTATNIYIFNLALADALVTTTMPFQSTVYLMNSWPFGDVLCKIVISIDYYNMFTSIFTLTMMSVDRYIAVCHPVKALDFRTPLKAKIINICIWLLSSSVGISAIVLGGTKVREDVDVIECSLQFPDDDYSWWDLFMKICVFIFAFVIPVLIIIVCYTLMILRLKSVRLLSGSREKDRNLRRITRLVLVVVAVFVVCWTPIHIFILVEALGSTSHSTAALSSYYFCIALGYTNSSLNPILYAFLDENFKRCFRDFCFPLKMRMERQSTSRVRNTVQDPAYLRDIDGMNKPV
Beta2, sequence (P07550 whole entry): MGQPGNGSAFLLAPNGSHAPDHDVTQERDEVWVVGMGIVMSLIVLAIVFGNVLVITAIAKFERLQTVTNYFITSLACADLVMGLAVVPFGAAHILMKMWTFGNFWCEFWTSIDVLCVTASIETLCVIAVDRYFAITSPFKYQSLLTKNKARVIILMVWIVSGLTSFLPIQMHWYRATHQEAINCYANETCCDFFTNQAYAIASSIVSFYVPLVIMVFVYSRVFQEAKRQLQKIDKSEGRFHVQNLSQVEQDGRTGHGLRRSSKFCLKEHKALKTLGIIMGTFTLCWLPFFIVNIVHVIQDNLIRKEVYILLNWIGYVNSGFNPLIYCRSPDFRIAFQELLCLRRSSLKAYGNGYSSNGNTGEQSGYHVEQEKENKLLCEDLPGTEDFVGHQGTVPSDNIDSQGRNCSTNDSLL
A3B4, sequence (P04757 26-499): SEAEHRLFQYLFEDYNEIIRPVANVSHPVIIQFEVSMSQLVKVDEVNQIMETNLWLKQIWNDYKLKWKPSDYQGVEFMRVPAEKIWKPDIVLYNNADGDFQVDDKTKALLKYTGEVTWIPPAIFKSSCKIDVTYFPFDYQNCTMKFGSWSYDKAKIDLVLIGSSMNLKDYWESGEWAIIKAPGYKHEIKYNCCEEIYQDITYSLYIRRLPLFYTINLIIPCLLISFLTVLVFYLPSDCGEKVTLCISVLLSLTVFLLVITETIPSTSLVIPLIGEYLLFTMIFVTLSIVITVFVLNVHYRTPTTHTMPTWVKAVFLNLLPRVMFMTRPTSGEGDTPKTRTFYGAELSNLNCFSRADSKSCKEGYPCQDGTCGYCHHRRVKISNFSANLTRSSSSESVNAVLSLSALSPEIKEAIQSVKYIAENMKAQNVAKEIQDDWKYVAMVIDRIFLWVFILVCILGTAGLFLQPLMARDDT
A3B4, sequence (P12392 21-495): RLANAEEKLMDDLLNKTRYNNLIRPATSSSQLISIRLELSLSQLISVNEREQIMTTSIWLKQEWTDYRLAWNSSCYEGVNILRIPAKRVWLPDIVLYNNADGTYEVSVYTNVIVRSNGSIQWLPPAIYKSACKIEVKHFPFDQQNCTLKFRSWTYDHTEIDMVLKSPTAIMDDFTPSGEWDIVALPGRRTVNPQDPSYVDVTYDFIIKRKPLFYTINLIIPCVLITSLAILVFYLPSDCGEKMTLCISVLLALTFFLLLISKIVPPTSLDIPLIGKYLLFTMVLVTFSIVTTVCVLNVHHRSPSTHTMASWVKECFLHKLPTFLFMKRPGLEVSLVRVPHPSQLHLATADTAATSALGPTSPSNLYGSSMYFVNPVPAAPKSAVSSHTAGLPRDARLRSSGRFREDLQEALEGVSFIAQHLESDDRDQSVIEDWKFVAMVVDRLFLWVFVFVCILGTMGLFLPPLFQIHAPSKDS
A3B2, sequence (P04757 26-499): as the sequence (P04757 26-499) above
A3B2, sequence (P12390 25-500): as the sequence (P12390 25-500) above
5-ht1e, sequence (P28566 whole entry, species assumed): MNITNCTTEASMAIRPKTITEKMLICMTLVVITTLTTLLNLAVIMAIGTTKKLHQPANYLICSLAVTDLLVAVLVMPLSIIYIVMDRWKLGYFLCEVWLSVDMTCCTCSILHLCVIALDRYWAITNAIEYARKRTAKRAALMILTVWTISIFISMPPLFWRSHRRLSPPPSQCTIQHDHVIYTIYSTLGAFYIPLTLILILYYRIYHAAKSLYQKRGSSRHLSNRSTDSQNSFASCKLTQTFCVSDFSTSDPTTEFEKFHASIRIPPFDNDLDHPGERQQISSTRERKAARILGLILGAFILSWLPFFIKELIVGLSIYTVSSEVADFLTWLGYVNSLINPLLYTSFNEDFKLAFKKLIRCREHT
5-HT2A, sequence (P28223 whole entry): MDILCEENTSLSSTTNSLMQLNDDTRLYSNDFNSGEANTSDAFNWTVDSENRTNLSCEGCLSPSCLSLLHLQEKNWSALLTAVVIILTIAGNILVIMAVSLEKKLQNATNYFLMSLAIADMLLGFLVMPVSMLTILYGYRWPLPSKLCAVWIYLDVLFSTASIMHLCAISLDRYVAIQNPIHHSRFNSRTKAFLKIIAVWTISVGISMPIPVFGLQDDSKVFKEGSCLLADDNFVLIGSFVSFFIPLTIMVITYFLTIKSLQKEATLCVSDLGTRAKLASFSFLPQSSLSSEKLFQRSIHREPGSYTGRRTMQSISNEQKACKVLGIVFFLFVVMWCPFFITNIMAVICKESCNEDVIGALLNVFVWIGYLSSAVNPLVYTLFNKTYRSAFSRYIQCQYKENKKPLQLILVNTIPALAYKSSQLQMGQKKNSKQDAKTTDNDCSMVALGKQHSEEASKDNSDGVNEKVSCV

Compound | Ki (Beta2) [µM] | Ki (A2B2) [µM] | Ki (A3B2) [µM] | Ki (Beta3) [µM] | Ki (Alpha2C) [µM] | Ki (Alpha1A) [µM] | Ki (KOR) [µM] | Ki (H3) [µM] | Ki (M3) [µM] | Ki (5-HT7) [µM] | Ki (5-ht1e) [µM] | Ki (D3) [µM] | Ki (5-HT2A) [µM] | Ki (hDAT) [µM] | Ki (M5) [µM] | Ki (5-HT2B) [µM] | Ki (H4) [µM] | Ki (GABAA) [µM] | Ki (5-HT3) [µM] | Ki (A3B4) [µM]
CCNC1(c2cccc(OC)c2)CCCCC1=O (racemic) [Methoxetamine, (RS)-2-(ethylamino)-2-(3-methoxyphenyl)cyclohexanone] | > 10 | > 10 | > 10 | > 10 | > 10 | > 10 | > 10 | > 10 | > 10 | > 10 | > 10 | > 10 | > 10 | > 10 | > 10 | > 10 | > 10 | > 10 | > 10 | > 10
COc1cccc(C2(N3CCCCC3)CCCCC2)c1 [3-MeO-PCP, 1-[1-(3-methoxyphenyl)cyclohexyl]piperidine] | > 10 | > 10 | > 10 | > 10 | > 10 | > 10 | > 10 | > 10 | > 10 | > 10 | > 10 | > 10 | > 10 | 0.743 | > 10 | > 10 | > 10 | > 10 | > 10 | > 10
COc1ccc(C2(N3CCCCC3)CCCCC2)cc1 [4-MeO-PCP, 1-[1-(4-methoxyphenyl)cyclohexyl]piperidine] | > 10 | > 10 | > 10 | > 10 | > 10 | > 10 | > 10 | > 10 | > 10 | > 10 | > 10 | > 10 | > 10 | > 10 | > 10 | > 10 | > 10 | > 10 | > 10 | > 10

Reference: publication PMC3602154 (PLoS ONE, 2013)
